Data reported in ChEMBL document CHEMBL1124722, “Synthesis and anticonvulsant activity of 2-benzylglutarimides” (J Med Chem, 1990).
The source made the active and inactive calls. The rule behind the calls is not given here.

Key:
[1] = species on record: Mus musculus; test: Time of peak effect activity against maximal electroshock induced seizures; format: functional
[2] = in vivo; settings: rat, ip
[3] = test system: Rattus norvegicus; test: The effective dose of compound was tested against maximal electroshock induced seizures after oral administration in rat; format: functional
[4] = test system: Rattus norvegicus; test: The effective dose of compound was tested against subcutaneous administered Metrazol induced seizures in rat; Not effective; format: functional, organism-based
[5] = test system: Mus musculus; test: The effective dose of compound was tested against subcutaneous administered Metrazol induced seizures after intraperitoneal administration; Not effective; format: functional, organism-based
[6] = species on record: Mus musculus; test: Median hypnotic dose by loss of righting reflex; format: functional
[7] = species on record: Mus musculus; test: Median lethal dose was measured after 24 hr; format: functional
[8] = test system: Mus musculus; test: The compound was tested for anticonvulsant activity against (subcutaneous administered) Metrazol induced seizures after intraperitoneal administration; No protection up to 100 mg/kg; format: functional, organism-based; design: dose 100 mg/kg
[9] = test system: Mus musculus; test: The compound was tested for anticonvulsant activity against (subcutaneous administered) bicuculline induced seizures after intraperitoneal administration; Protected at 100 mg/ kg; format: functional, organism-based; design: dose 100 mg/ kg
[10] = species on record: Mus musculus; test: Time of peak effect toxicity against maximal electroshock induced seizures; format: organism-based; settings: in vivo
[11] = test system: Mus musculus; test: Anticonvulsant activity against subcutaneous administered Metrazol induced seizures (scMET) after 4 hr at 300 mg/kg; Active; format: functional, organism-based; design: dose 300 mg/kg
[12] = test system: Mus musculus; test: Anticonvulsant activity against maximal electroshock induced seizures after 4 hr; Not active up to 300 mg/kg.; format: functional, organism-based; design: dose 300 mg/kg
[13] = test system: Mus musculus; test: The Neurologic toxicity by measuring rotarod test after 0.5 h; No toxicity up to 300 mg/kg; format: organism-based; design: dose 300 mg/kg; settings: in vivo
[14] = test system: Mus musculus; test: The Neurologic toxicity by measuring rotarod after 4 hr; No toxicity up to 300 mg/kg; format: organism-based; design: dose 300 mg/kg; settings: in vivo
[15] = test system: Mus musculus; test: Anticonvulsant activity against maximal electroshock induced seizures (MES) after 0.5 h; Not active up to 300 mg/kg; format: functional, organism-based; design: dose 300 mg/kg
[16] = test system: Mus musculus; test: Anticonvulsant activity against subcutaneous administered Metrazol induced seizures (scMET) after 0.5 hr; Not active up to 300 mg/kg; format: functional, organism-based; design: dose 300 mg/kg
[17] = Median lethal dose was measured after 24 hr.; format: organism-based; settings: mouse, in vivo
[18] = species on record: Mus musculus; test: Time of peak effect was determined for toxicity; format: functional
[19] = species on record: Mus musculus; test: Median hypnotic dose by loss of righting reflex.; format: functional
[20] = test system: Rattus norvegicus; test: The cytotoxicity after intraperitoneal administration in rat.; format: functional; settings: ip
[21] = species on record: Mus musculus; test: Time of peak effect was determined for activity in MES; format: functional; design: unit not given here
[22] = test system: Mus musculus; test: The compound was tested for anticonvulsant activity against (subcutaneous administered) Metrazol induced seizures after intraperitoneal administration; format: functional
[23] = Protective index was calculated (TD50/ED50) in MES assay in mice after intraperitoneal administration; format: functional
[24] = Protective index was calculated (TD50/ED50) in MES assay in mice after oral administration; format: functional
[25] = The cytotoxicity (given orally) […] in mice; format: organism-based; settings: mouse, in vivo
[26] = test system: Mus musculus; test: The effective dose of compound (given orally) was tested against subcutaneous administered Metrazol induced seizures in mice; format: functional
[27] = test system: Mus musculus; test: Anticonvulsant activity against subcutaneous picrotoxin induced seizures after intraperitoneal administration; format: functional
[28] = test system: Mus musculus; test: The effective dose of compound was tested against maximal electroshock induced seizures after intraperitoneal administration; format: functional; settings: ip
[29] = Protective index was calculated (TD50/ED50) in MES assay in rat after oral administration; format: functional
[30] = test system: Mus musculus; test: The compound was tested for anticonvulsant activity against (subcutaneous administered) strychnine induced seizures after intraperitoneal administration; format: functional
[31] = Protective index was calculated (TD50/ED50) in scMET assay in mice after intraperitoneal administration; format: functional
[32] = The cytotoxicity (given orally) […] in rat; format: organism-based; settings: in vivo
[33] = Protective index was calculated (TD50/ED50) in scMET assay in mice after oral administration; format: functional
[34] = test system: Mus musculus; test: The Neurologic toxicity by measuring rotarod test after 4 hr; No toxicity up to 300 mg/kg; format: organism-based; design: dose 300 mg/kg; settings: in vivo
[35] = test system: Mus musculus; test: The effective dose of compound was tested against subcutaneous administered Metrazol induced seizures after intraperitoneal administration.; format: functional
[36] = test system: Rattus norvegicus; test: The effective dose of compound (given orally) was tested against subcutaneous administered Metrazol induced seizures in rat; format: functional
[37] = Protective index was calculated (TD50/ED50) in scMET assay in rat after oral administration; format: functional
[38] = test system: Mus musculus; test: Anticonvulsant activity against subcutaneous administered Metrazol induced seizures (scMET) after 0.5 hr at 30 mg/kg; Active; format: functional, organism-based; design: dose 30 mg/kg
[39] = Ratio of LD50/HD50 was determined; format: functional
[40] = test system: Mus musculus; test: The compound was tested for anticonvulsant activity against (subcutaneous administered) bicuculline induced seizures after intraperitoneal administration; format: functional
[41] = test system: Mus musculus; test: Anticonvulsant activity against maximal electroshock induced seizures (MES) after 0.5 hr at 300 mg/kg; Active; format: functional, organism-based; design: dose 300 mg/kg
[42] = The cytotoxicity after intraperitoneal administration; format: organism-based; settings: mouse, in vivo, ip
[43] = test system: Mus musculus; test: Anticonvulsant activity against maximal electroshock induced seizures (MES) after 4 hr at 300 mg/kg; Active; format: functional, organism-based; design: dose 300 mg/kg
[44] = test system: Mus musculus; test: The effective dose of compound was tested against maximal electroshock induced seizures after oral administration in mice; format: functional
[45] = test system: Mus musculus; test: The effective dose of compound was tested against subcutaneous administered Metrazol induced seizures after intraperitoneal administration; format: functional
[46] = test system: Mus musculus; test: The effective dose of compound was tested against maximal electroshock induced seizures after intraperitoneal administration; Not active up to 300 mg/kg; format: functional, organism-based; design: dose 300 mg/kg
[47] = Protective index was calculated (TD50/ED50) in scMet assay in mice after intraperitoneal administration; format: functional
[48] = test system: Mus musculus; test: Anticonvulsant activity against subcutaneous administered Metrazol induced seizures (scMET) after 0.5 hr at 300 mg/kg; Active; format: functional, organism-based; design: dose 300 mg/kg

Compound `NC(=O)N1c2ccccc2C=Cc2ccccc21` [CARBAMAZEPINE] has a TPE [1] of 0.25, a TD50 [2] of 813 mg/kg and an ED50 [3] of 8.5 mg/kg. For the same compound, the ED50 [4] was “inactive”, the ED50 [5] was “inactive” and the HD50 [6] was 172.24 mg/kg. For the same compound, the LD50 [7] was 629 mg/kg, the ED50 [8] was “inactive” and the ED50 [9] was “Active”. It also gave a TPE [10] of 0.25.

With `COc1ccc(CC2CCC(=O)NC2=O)cc1` (centres undefined) the Activity [11] was “Active”, the Activity [12] was “inactive” and the Toxicity [13] was “No toxicity up to 300 mg/kg”. The Toxicity [14] was “No toxicity up to 300 mg/kg”, the Activity [15] was “inactive” and the Activity [16] was “inactive”.

Compound `CCC1(c2ccccc2)C(=O)NC(=O)NC1=O` [PHENOBARBITAL] has an Activity [1] of 1 h, an LD50 at 24 h [17] of 265 mg/kg and a TPE [18] of 0.5. The HD50 [19] was 135.45 mg/kg, the ED50 [20] was 61.1 mg/kg and the TPE [21] was 1. The Time of peak effect [10] was 0.5 h.

`O=C1CCC(Cc2ccc(Cl)cc2)C(=O)N1` (centres undefined) showed a TPE [1] of 0.5, an ED50 [22] of 72.8 mg/kg and a Ratio [23] of 8.95. For the same compound, the Ratio [24] was over 5.18, the TD50 [25] was over 3000 mg/kg and the Activity [11] was “Active”. For the same compound, the ED50 [26] was 274 mg/kg, the ED50 [27] was 158 mg/kg and the ED50 [28] was 137 mg/kg. It also gave an ED50 [3] of 58.3 mg/kg, a Ratio [29] of 1.17 and an ED50 [30] of 232 mg/kg. For the same compound, the Ratio [31] was 16.82, the TD50 [32] was 68.2 mg/kg and the Ratio [33] was over 10.95. For the same compound, the Toxicity [34] was “No toxicity up to 300 mg/kg”, the ED50 [35] was 72.8 mg/kg and the Toxicity [13] was “No toxicity up to 300 mg/kg”. For the same compound, the HD50 [6] was 1282.47 mg/kg, the ED50 [36] was 36.4 mg/kg and the Ratio [37] was 1.87. The Activity [38] was “Active”, the Ratio [39] was over 1.87 and the ED50 [40] was 249 mg/kg. For the same compound, the Activity [41] was “Active”, the LD50 [7] was over 2400 mg/kg and the TD50 [42] was 1220 mg/kg. The Activity [43] was “Active”, the ED50 [44] was 579 mg/kg and the TPE [10] was 1.

For `O=C1CCC(Cc2ccc(I)cc2)C(=O)N1` (centres undefined), the ED50 [45] was 87.2 mg/kg, the Activity [11] was “Active” and the ED50 [46] was “Not active up to 300 mg/kg”. The Activity [12] was “inactive”, the Toxicity [34] was “No toxicity up to 300 mg/kg” and the Toxicity [13] was “No toxicity up to 300 mg/kg”. The Activity [15] was “inactive”, the Ratio [47] was over 12.04 and the TPE [21] was 1. The Activity [48] was “Active” and the TD50 [42] was over 1050 mg/kg.
